This is an account of results in ChEMBL document CHEMBL5518172, “Discovery of hydroxamate as a promising scaffold dually inhibiting metallo- and serine-β-lactamases” (Eur J Med Chem, 2024).

Each structure is given as a SMILES string. Where only a bound is given, the exact number is not on record here.

In experiment [1] the target is Metallo-beta-lactamase type 2 (Bacteria) (UniProt C7C422). In words: Inhibition of recombinant NDM-1 (unknown origin) expressed in Escherichia coli BL21 (DE3) cells using meropenem as substrate at 20 uM by spectrometric analysis relative to control.
Metallo-beta-lactamase type 2 (Bacteria), sequence (C7C422 whole entry): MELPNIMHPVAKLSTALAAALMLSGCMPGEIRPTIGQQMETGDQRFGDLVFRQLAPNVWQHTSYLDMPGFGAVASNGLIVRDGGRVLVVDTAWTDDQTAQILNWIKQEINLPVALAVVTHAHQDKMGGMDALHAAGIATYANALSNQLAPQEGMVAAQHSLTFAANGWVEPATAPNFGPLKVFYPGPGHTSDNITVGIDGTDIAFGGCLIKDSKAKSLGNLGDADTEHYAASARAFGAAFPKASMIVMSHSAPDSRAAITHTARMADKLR
Experiment [2] concerns Bacteria. In words: Inhibition of recombinant metallo-beta-lactamase IMP-1 (unknown origin) expressed in Escherichia coli BL21 (DE3) cells using cefazolin as substrate at 20 uM by spectrometric analysis relative to control.
Experiment [3] deals with Bacteria. As to the kind of experiment: Inhibition of recombinant metallo-beta-lactamase ImiS (unknown origin) expressed in Escherichia coli BL21 (DE3) cells using meropenem as substrate at 20 uM by spectrometric analysis relative to control.
For experiment [4], the system named is Bacteria. In words: Inhibition of recombinant metallo-beta-lactamase L-1 (unknown origin) expressed in Escherichia coli BL21 (DE3) cells using cefazolin as substrate at 20 uM by spectrometric analysis relative to control.
In experiment [5] the target is Metallo-beta-lactamase type 2 (Bacteria, UniProt C7C422). In words: Inhibition of recombinant NDM-1 (unknown origin) expressed in Escherichia coli BL21 (DE3) cells using meropenem as substrate by spectrometric analysis.
Metallo-beta-lactamase type 2, sequence (C7C422 whole entry): as above
A short description of experiment [6]: Inhibition of recombinant metallo-beta-lactamase IMP-1 (unknown origin) expressed in Escherichia coli BL21 (DE3) cells using meropenem as substrate by spectrometric analysis. More on the design: species or system Bacteria.
Experiment [7] is described as follows: Inhibition of recombinant serine beta lactamase OXA-48 (unknown origin) expressed in Escherichia coli BL21 (DE3) cells using meropenem as substrate by spectrometric analysis. Set-up: species or system Bacteria.
Experiment [8] in a line: Inhibition of recombinant serine beta lactamase KPC-2 (unknown origin) expressed in Escherichia coli BL21 (DE3) cells using meropenem as substrate by spectrometric analysis. More on the design: species or system Bacteria.
Experiment [9] concerns Escherichia coli. In words: Synergistic antibacterial activity against Escherichia coli BL21 (DE3) harboring NDM-1 assessed as meropenem MIC at 64 microg/ml measured after 16 hrs by CLSI protocol based broth microdilution method (reference value: 256 microg/ml). It is filed as functional. As to conditions: dose 64 µg/ml.
Experiment [10] relates to Escherichia coli. In words: Synergistic antibacterial activity against Escherichia coli BL21 (DE3) harboring metallo-beta-lactamase IMP-1 assessed as meropenem MIC at 64 microg/ml measured after 16 hrs by CLSI protocol based broth microdilution method (reference value: 64 microg/ml). In kind it is functional. As to conditions: dose 64 µg/ml.
Experiment [11] relates to Escherichia coli. As to the kind of experiment: Synergistic antibacterial activity against Escherichia coli BL21 (DE3) harboring serine beta lactamase KPC-2 assessed as meropenem MIC at 64 microg/ml measured after 16 hrs by CLSI protocol based broth microdilution method (reference value: 16 microg/ml). In kind it is functional. Conditions: dose 64 µg/ml.
Experiment [12] concerns Escherichia coli. As to the kind of experiment: Synergistic antibacterial activity against Escherichia coli BL21 (DE3) harboring serine beta lactamase OXA-48 assessed as meropenem MIC at 64 microg/ml measured after 16 hrs by CLSI protocol based broth microdilution method (reference value: 1 microg/ml). It is filed as functional. Conditions: dose 64 µg/ml.
Experiment [13] relates to Escherichia coli. In words: Synergistic antibacterial activity against Escherichia coli BL21 (DE3) harboring NDM-1 assessed as fold decrease in meropenem MIC at 64 microg/ml measured after 16 hrs by CLSI protocol based broth microdilution method. In kind it is functional. As to conditions: dose 64 µg/ml.
The test system of experiment [14] is Escherichia coli. As to the kind of experiment: Synergistic antibacterial activity against Escherichia coli BL21 (DE3) harboring metallo-beta lactamase IMP-1 assessed as fold decrease in meropenem MIC at 64 microg/ml measured after 16 hrs by CLSI protocol based broth microdilution method. It is filed as functional. Conditions: dose 64 µg/ml.
The subject of experiment [15] is Escherichia coli. As to the kind of experiment: Synergistic antibacterial activity against Escherichia coli BL21 (DE3) harboring serine beta lactamase KPC-2 assessed as fold decrease in meropenem MIC at 64 microg/ml measured after 16 hrs by CLSI protocol based broth microdilution method. It is filed as functional. Conditions: dose 64 µg/ml.
In experiment [16] the test system is Bacteria. In words: Inhibition of recombinant serine beta lactamase KPC-2 (unknown origin) expressed in Escherichia coli BL21 (DE3) cells using meropenem as substrate at 20 uM by spectrometric analysis relative to control.
Experiment [17] concerns Bacteria. As to the kind of experiment: Inhibition of recombinant serine beta lactamase OXA-48 (unknown origin) expressed in Escherichia coli BL21 (DE3) cells using meropenem as substrate at 20 uM by spectrometric analysis relative to control.
In experiment [18] the test system is Escherichia coli. In words: Synergistic antibacterial activity against Escherichia coli BL21 (DE3) harboring serine beta lactamase OXA-48 assessed as fold decrease in meropenem MIC at 64 microg/ml measured after 16 hrs by CLSI protocol based broth microdilution method. It is filed as functional. Conditions: dose 64 µg/ml.

In the case of `CC(=O)NOC(=O)OCc1ccccc1`, the inhibition in [1] is greater than 90%; in experiment [2], greater than 90%; in experiment [3] it was less than 42%; in experiment [4] it was less than 42%. The IC50 in experiment [5] was 3.21 µM; in [6], 2.42 µM; in experiment [7] it was greater than 50 µM; in experiment [8], greater than 50 µM. Moreover, the MIC in experiment [9] was determined as 64 µg/mL; in experiment [10], 32 µg/mL; in experiment [11] it was 16 µg/mL; in [12] it was 1 µg/mL. In addition, the “fold change (FC)” value in experiment [13] and in experiment [14] was 2 each time.
In the case of `CCCCCOC(=O)ONC(=O)CCc1ccccc1`, the inhibition was greater than 90% in [1], greater than 90% in [2], less than 42% in experiment [3] and less than 42% in [4]. Moreover, the IC50 in experiment [5] came out at 4.72 µM; in [6], 1.73 µM; in [7], 9.08 µM; in experiment [8], 4.51 µM. Moreover, the MIC in [9] stood at 64 µg/mL; in experiment [10], 16 µg/mL; in [11], 8 µg/mL; in [12], 1 µg/mL. Moreover, the “fold change (FC)” value in experiment [13], in experiment [14] and in [15] was 2 throughout.
For the compound `CCCCCOC(=O)ONC(=O)C(CC)c1ccccc1` (stereo not given), the IC50 is 35.3 µM in experiment [5], 23 µM in experiment [6], 22.3 µM in [7] and 17.5 µM in experiment [8]. Further, the MIC in experiment [9] was 128 µg/mL; in [10] it was 32 µg/mL; in experiment [11], 8 µg/mL; in experiment [12] it was 1 µg/mL. For the same compound, the “fold change (FC)” value in experiment [13], in experiment [14] and in experiment [15] was 2 throughout.
As to `CCOC(=O)ONC(=O)CC(c1ccccc1)c1ccccc1`, the inhibition in experiment [1] was greater than 90%; in experiment [2], greater than 90%; in [3] it was less than 42%; in experiment [4], less than 42%. In addition, the IC50 in experiment [5] was 2.24 µM; in [6], 1.64 µM; in [7] it was 10 µM; in [8], 13.1 µM. The MIC in [9] stood at 128 µg/mL; in experiment [10], 64 µg/mL; in experiment [11], 8 µg/mL; in experiment [12], 1 µg/mL. In experiment [15], the “fold change (FC)” value is on record as 2.
For `O=C(OCc1ccccc1)ONC(=O)c1ccccc1`, the inhibition in experiment [1] is greater than 90%; in [2], greater than 90%; in experiment [3], less than 42%; in experiment [4] it was less than 42%. The IC50 in experiment [5] is 2.62 µM; in [6], 2.38 µM; in experiment [7], greater than 50 µM; in experiment [8], greater than 50 µM. The MIC in [9] worked out at 128 µg/mL; in experiment [10], 64 µg/mL; in [11] it was 16 µg/mL; in experiment [12], 1 µg/mL.
As for `CC(C)COC(=O)ONC(=O)CCc1ccccc1`, the inhibition in experiment [16] and in experiment [17] was greater than 90% throughout. The IC50 amounted to 6.01 µM in experiment [5], 12.4 µM in [6], 2.74 µM in experiment [7] and 4.56 µM in experiment [8]. In addition, the MIC in [9] amounted to 128 µg/mL; in experiment [10], 32 µg/mL; in [11], 8 µg/mL; in experiment [12] it was 1 µg/mL. In addition, the “fold change (FC)” value in experiment [13], in [14] and in [15] was 2 each time.
Turning to `CCOC(=O)ONC(=O)C(CC)c1ccccc1` (stereo not given), the IC50 came out at 37.4 µM in [5], 32.2 µM in experiment [6], 32.7 µM in [7] and 28 µM in [8]. The MIC was determined as 128 µg/mL in experiment [9], 32 µg/mL in experiment [10], 16 µg/mL in experiment [11] and 1 µg/mL in experiment [12]. Further, the “fold change (FC)” value in experiment [13] and in experiment [14] was 2 each time.
`O=C(CC(c1ccccc1)c1ccccc1)NOC(=O)OCc1ccccc1`: the inhibition in experiment [1] is greater than 90%; in experiment [2], greater than 90%; in experiment [3], less than 42%; in experiment [4] it was less than 42%. Moreover, the IC50 was 0.84 µM in experiment [5], 0.65 µM in [6], 5.45 µM in experiment [7] and 1.96 µM in experiment [8]. The MIC is 64 µg/mL in experiment [9], 64 µg/mL in experiment [10], 8 µg/mL in [11] and 0.5 µg/mL in experiment [12]. Moreover, the “fold change (FC)” value in experiment [15] and in experiment [18] was 2 throughout.
`CCOC(=O)ONC(=O)CCc1ccccc1`: the half-maximal inhibitory concentration (IC50) in experiment [5] amounted to 5.03 µM; in experiment [6], 1.83 µM; in experiment [7], 8.5 µM; in experiment [8], 7.7 µM. The MIC in experiment [9] was 128 µg/mL; in experiment [10], 32 µg/mL; in [11], 8 µg/mL; in [12] it was 0.5 µg/mL. Besides, the “fold change (FC)” value in [13], in experiment [14], in experiment [15] and in [18] was 2 each time.
Take `O=C(CCc1ccccc1)NOC(=O)OCc1ccccc1`: the inhibition in experiment [1] was greater than 90%; in experiment [2], greater than 90%; in experiment [3], less than 42%; in [4], less than 42%; in experiment [16], greater than 90%; in [17], greater than 90%. Besides, the IC50 was 2.18 µM in experiment [5], 1.69 µM in [6], 3.09 µM in [7] and 2.66 µM in experiment [8]. The MIC in experiment [9] was found to be 64 µg/mL; in [10], 32 µg/mL; in [11] it was 8 µg/mL; in experiment [12], 1 µg/mL. For the same compound, the “fold change (FC)” value in experiment [13], in [14] and in experiment [15] was 2 each time.
For the compound `O=C(OCc1ccccc1)ONC(=O)C1CCCCC1`, the 50% inhibitory concentration (IC50) in experiment [5] came to 41.1 µM; in [6], 27.2 µM; in experiment [7] it was 6.71 µM; in [8], 41.9 µM. In addition, the MIC in experiment [9] was determined as 128 µg/mL; in experiment [10], 64 µg/mL; in experiment [11] it was 16 µg/mL; in experiment [12], 1 µg/mL.
For the compound `O=C(CCC1CCCCC1)NOC(=O)OCc1ccccc1`, the inhibition in experiment [16] and in experiment [17] was greater than 90% throughout. The IC50 worked out at 1.27 µM in [5], 6.48 µM in [6], 1.99 µM in experiment [7] and 0.6 µM in [8]. Moreover, the MIC in experiment [9] was 64 µg/mL; in experiment [10], 32 µg/mL; in [11], 16 µg/mL; in experiment [12], 0.5 µg/mL. The “fold change (FC)” value in experiment [13], in experiment [14] and in experiment [18] was 2 in each case.
As to `CCOC(=O)ONC(=O)CCC1CCCCC1`, the inhibition in [16] and in experiment [17] was greater than 90% each time. Also, the IC50 in experiment [5] was 3.27 µM; in experiment [6], 3.03 µM; in [7], 3.45 µM; in experiment [8] it was 1.29 µM. The MIC in experiment [9] worked out at 64 µg/mL; in experiment [10] it was 32 µg/mL; in [11] it was 16 µg/mL; in experiment [12], 0.063 µg/mL. Also, the “fold change (FC)” value in experiment [13] came to 2; in experiment [14], 2; in experiment [18], 16.
